Test results from US9150638B2, “Factor XII inhibitors for treating interstitial lung disease” (Justus-Liebig-Universität Giessen, priority 2010, dated 2015).

Assays:
FXII = test: TGF-β1-induced FXII expression in HLF; type: cell-based, human; details: HLF treated with inhibitor 1 h prior to TGF-β1 for 48 h
Method: Human lung specimens of the pulmonary parenchyma and mouse lungs were chopped into <1 mm^3 pieces. The minced pieces were washed twice with PBS and then plated in 100-mm dishes (Greiner-bio-one, Frickenhausen, Germany). The specimens were cultured with Dulbecco's modified Eagle's medium (DMEM; Invitrogen, Karlsruhe, Germany) supplemented with 10% fetal calf serum (FCS; HyClone, South Logan, UT), and 1% penicillin/streptomycin (Invitrogen) in humidified atmosphere of 5% CO2 at 37° C. Purity of isolated fibroblasts was verified by positive staining for vimentin, fibronectin and collagen IV. All experiments were carried out with lung fibroblasts from passages 3-4. The mouse NIH3T3 fibroblasts were cultured in DMEM supplemented with 10% FCS, and 1% penicillin/streptomycin in humidified atmosphere of 5% CO2 at 37° C.
(§1) Proteins separated on SDS polyacrylamide gel were transferred to a PVDF membrane (Amersham Biosciences, Freiburg, Germany) using wet transfer technique in transfer buffer (25 mM Tris, 192 mM Glycine, 20% (v/v) Methanol) for 1 h at 100V. After blocking with 5% non-fat dry milk in tris-buffered saline (TBS; 25 mM Tris-Cl, 150 mM NaCl, pH 7.5) containing 0.1% (v/v) Tween 20 (TBS-T), the membranes were incubated at 4° C. overnight with appropriate primary antibody diluted in 1% BSA in TBS-T. After 1 h incubation with peroxidase-labelled secondary antibody (all from Dako, Gostrup, Denmark) proteins were detected using ECL Plus Kit (Amersham Biosciences, Freiburg, Germany). To determine the amounts of protein loaded on the gel, blots were in 1 hour (stripping buffer: 100 mM Glycine, 1% HCl) and reprobed using an anti-β-actin or appropriate anti-pan antibody.
Pre-designed, commercially available siRNA sequences directed against human Smad 3 (Dharmacon, Chicago, Ill.), human JNK1 (Abnova, Heidelberg, Germany), and an universal negative-control siRNA (Ambion, Austin, Tex.) were employed. Cells were treated with siRNA (250 nM each) using the X-treme Gene siRNA Transfection Reagent (Roche). The siRNA-mediated downregulation of the target genes was assessed 72 h after transfection by Western blotting.

Smad 3 [1] = test: Western blot of Smad 3 phosphorylation in TGF-β1 treated HLF; type: cell-based, human
Method: as §1

JNK = test: Western blot of JNK activity in TGF-β1 treated HLF; type: cell-based, human
Smad 3 [2] = test: TGF-β1 driven translocation of phospho-Smad 3 to the nucleus in HLF; type: cell-based, human
Method: as §1, with “antibody. […]” for “antibody.”
[…]. […] After boiling, the DNA-bound proteins were analyzed by Western blot using rabbit anti-phospho Smad 3 antibody (Cell Signaling). […]

Smad 3-SBE-272 = test: ChIP of the Smad 3-SBE-272 complex; type: cell-based, human
Method: ChIP was performed using Chromatin Immunoprecipitation Assay Kit from Millipore (Schwalbach, Germany) according to manufacturer's instruction. […] The cross-linked chromatin was then prepared and sonicated to an average size of 500-800 bp. The DNA fragments were immunoprecipitated with rabbit anti-Smad 3 antibody (Cell Signaling) or IgG isotype control overnight at 4° C. After reversal of cross-linking, the immunoprecipitated chromatin was amplified by PCR using following primers: human FXII-299 bp forward: [NT] ID NO:25); human FXII-299 bp reverse: [NT] ID NO:26).

FXII promoter = FXII promoter luciferase assay in NIH3T3 cells; details: pGL3-299 construct; inhibitor 1 h prior to 10 ng/ml TGF-β1
FXIIa = target: T1, FXIIa (Homo sapiens, UniProt P00748); details: cited from earlier work
T1 sequence (P00748 373-615 limits assumed): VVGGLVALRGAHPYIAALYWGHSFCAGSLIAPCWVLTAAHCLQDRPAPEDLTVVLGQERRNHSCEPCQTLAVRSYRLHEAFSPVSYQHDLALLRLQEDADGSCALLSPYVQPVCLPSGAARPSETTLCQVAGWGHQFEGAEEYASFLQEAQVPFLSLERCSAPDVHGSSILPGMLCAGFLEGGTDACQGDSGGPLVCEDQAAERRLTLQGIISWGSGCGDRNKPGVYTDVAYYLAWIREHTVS
T1 sequence (P00748 20-372 partner limits assumed): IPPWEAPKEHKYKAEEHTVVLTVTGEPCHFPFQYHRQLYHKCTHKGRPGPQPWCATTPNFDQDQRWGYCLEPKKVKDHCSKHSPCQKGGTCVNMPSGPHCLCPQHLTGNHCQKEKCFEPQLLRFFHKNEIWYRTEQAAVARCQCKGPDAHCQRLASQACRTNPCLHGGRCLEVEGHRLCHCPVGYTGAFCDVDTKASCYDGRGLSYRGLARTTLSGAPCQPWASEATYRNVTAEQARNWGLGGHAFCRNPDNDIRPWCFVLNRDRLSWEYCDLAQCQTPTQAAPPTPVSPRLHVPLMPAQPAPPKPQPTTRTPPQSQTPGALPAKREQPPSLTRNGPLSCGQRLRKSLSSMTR

For `NC(=O)c1ccc(-c2nc(-c3ccc4c(c3)OCO4)c(-c3ccccn3)[nH]2)cc1` [SB431542], the “FXII expression in response to TGF-β1 (Western blot)” value (FXII) was “reduction of FXII expression”, the “Smad 3 phosphorylation in response to TGF-β1” value (Smad 3 [1]) was “attenuated” and the “JNK activity / JNK1 phosphorylation in response to TGF-β1” value (JNK) was “attenuated”. For the same compound, the “TGF-β1-induced Smad 3 translocation to the nucleus” value (Smad 3 [2]; HLF pretreated with inhibitor, TGF-β1 1 h) was “completely blocks”, the “accumulation of Smad 3 in the nucleus, inhibitor alone” value (Smad 3 [2]; HLF, without TGF-β1, data not shown) was “did not affect” and the “TGF-β1 induced Smad 3-DNA complex formation (ChIP)” value (Smad 3-SBE-272; HLF pretreated with inhibitor 1 h prior to TGF-β1) was “completely abolished”. The “interaction of Smad3 with DNA, inhibitor alone” value (Smad 3-SBE-272; without TGF-β1, data not shown) was “did not affect” and the “TGF-β1 driven luciferase activity” value (FXII promoter) was “strongly reduced”.

For “Infestin-4: Kazal-type serine protease inhibitor domain 4 from Triatoma infestans, FXIIa inhibitor (SEQ ID NO: 33) (EVRNPCACFRNYVPVCGSDGKTYGNPCMLNCAAQTKVPGLKLVHEGRC; Triatoma infestans)”, the “prolonging activated partial thromboplastin time” value (FXIIa) is given as “approximately three-fold”.
